Measured values reported in ChEMBL document CHEMBL5042535, “Structure-Based Design and Synthesis of N-Substituted 3-Amino-β-Carboline Derivatives as Potent αβ-Tubulin Degradation Agents” (J Med Chem, 2022).
Calls of active or inactive are those of the source. The calls are words filed in the database; no cut-off is given here.

Assays:
[1] = system: NCI/ADR-RES; experiment: Cytotoxicity in human NCI-ADR-RES assessed as inhibition in cell growth measured after 24 hrs by MTT assay; assay type: functional, cell-based
[2] = system: A2780S; experiment: Effect on microtubule network in human A2780S cells assessed as bundling of microtubule fibers near nucleus at 100 nM for 24 hrs; assay type: functional, cell-based
[3] = Drug resistance index, ratio of IC50 for human A2780S cancer cell to ratio of IC50 for human A2780T cancer cell; assay type: functional
[4] = system: A2780/Taxol; experiment: Antitumor activity against human A2780T cells xenografted in mouse assessed as tumor growth inhibition at 20 mg/kg, iv treated 3 times a week; assay type: functional; conditions: read-out: TGI
[5] = system: A2780/Taxol; experiment: Antitumor activity against human A2780T cells xenografted in mouse assessed as tumor growth inhibition at 10 mg/kg, iv treated 3 times a week; assay type: functional; conditions: read-out: TGI
[6] = system: A549/TR; experiment: Cytotoxicity in human A549T assessed as inhibition in cell growth measured after 24 hrs by MTT assay; assay type: functional, cell-based
[7] = system: A2780S; experiment: Antitumor activity against human A2780S cells xenografted in mouse assessed as tumor growth inhibition at 20 mg/kg, ip; assay type: functional; conditions: read-out: TGI
[8] = system: A2780S; experiment: Cytotoxicity in human A2780S assessed as inhibition in cell growth measured after 24 hrs by MTT assay; assay type: functional, cell-based
[9] = Drug resistance index, ratio of IC50 for human A549 cancer cell to ratio of IC50 for human A549T cancer cell; assay type: functional
[10] = system: A2780/Taxol; experiment: Antitumor activity against mouse xenografted with human A2780T cell assessed as tumor growth inhibition at 20 mg/kg, ip; assay type: functional; conditions: read-out: TGI
[11] = Drug resistance index, ratio of IC50 for human MCF7 cancer cell to ratio of IC50 for human NCI-ADR-RES cancer cell; assay type: functional
[12] = system: A2780/Taxol; experiment: Cytotoxicity in human A2780T assessed as inhibition in cell growth measured after 24 hrs by MTT assay; assay type: functional, cell-based
[13] = system: A2780/Taxol; experiment: Antitumor activity against human A2780T cells xenografted in mouse assessed as tumor growth inhibition at 40 mg/kg, iv treated 3 times a week; assay type: functional; conditions: read-out: TGI
[14] = system: HeLa; experiment: Antiproliferative activity against human HeLa cells assessed as reduction in cell viability measured after 24 hrs by MTT assay; assay type: functional, cell-based
[15] = system: MCF7; experiment: Antiproliferative activity against human MCF7 cells assessed as reduction in cell viability measured after 24 hrs by MTT assay; assay type: functional, cell-based; conditions: MCF7, 24 h
[16] = system: A2780S; experiment: Antiproliferative activity against human A2780S cells assessed as reduction in cell viability measured after 24 hrs by MTT assay; assay type: functional, cell-based
[17] = system: NCI-H460; experiment: Antiproliferative activity against human NCI-H460 cells assessed as reduction in cell viability measured after 24 hrs by MTT assay; assay type: functional, cell-based; conditions: NCI-H460, 24 h
[18] = system: Raji; experiment: Antiproliferative activity against human Raji cells assessed as reduction in cell viability measured after 24 hrs by MTT assay; assay type: functional, cell-based

| IC50 [14] | IC50 [15] | IC50 [16] | IC50 [17] | IC50 [18] | SMILES | IC50 [1] | Activity [2] | Ratio IC50 [3] | inhibition in vivo at 20 mg/kg [4] | inhibition in vivo at 10 mg/kg [5] | IC50 [6] | inhibition in vivo at 20 mg/kg [7] | IC50 [8] | Ratio IC50 [9] | inhibition in vivo at 20 mg/kg [10] | Ratio IC50 [11] | IC50 [12] | inhibition in vivo at 40 mg/kg [13] |
| --- | --- | --- | --- | --- | --- | --- | --- | --- | --- | --- | --- | --- | --- | --- | --- | --- | --- | --- |
| – | – | – | – | – | CC(=O)O[C@H]1C(=O)[C@@]2(C)[C@H]([C@H](OC(=O)c3ccccc3)[C@]3(O)C[C@H](OC(=O)[C@H](O)[C@@H](NC(=O)c4ccccc4)c4ccccc4)C(C)=C1C3(C)C)[C@]1(OC(C)=O)CO[C@@H]1C[C@@H]2O [PACLITAXEL] | 9340 nM | Active | 974.4 | 37.2% | 26.9% | 802 nM | 66.1% | 60.4 nM | 33.1 | 21.7% | 289 | 58900 nM | 75.7% |
| > 500 nM | > 500 nM | > 500 nM | > 500 nM | > 500 nM | COCCOc1cccc(CNc2cc3c(cn2)[nH]c2ccccc23)c1 | – | – | – | – | – | – | – | – | – | – | – | – | – |
